Reference: PubChem BioAssay AID1033 (Sanford-Burnham Center for Chemical Genomics, 2008)
The source made the active and inactive calls. How the calls were made is not given here.

Each molecule was assayed against Chaperone protein DnaK (Escherichia coli (strain K12)) (UniProt P0A6Y8) (assay: E. coli DnaK SBD ligand binding – biophysical, NMR, chaperone (AID 1033)). Conditions: Purified DnaK SBD.
Sequence of Chaperone protein DnaK (Escherichia coli (strain K12)) (P0A6Y8 whole entry, looked up): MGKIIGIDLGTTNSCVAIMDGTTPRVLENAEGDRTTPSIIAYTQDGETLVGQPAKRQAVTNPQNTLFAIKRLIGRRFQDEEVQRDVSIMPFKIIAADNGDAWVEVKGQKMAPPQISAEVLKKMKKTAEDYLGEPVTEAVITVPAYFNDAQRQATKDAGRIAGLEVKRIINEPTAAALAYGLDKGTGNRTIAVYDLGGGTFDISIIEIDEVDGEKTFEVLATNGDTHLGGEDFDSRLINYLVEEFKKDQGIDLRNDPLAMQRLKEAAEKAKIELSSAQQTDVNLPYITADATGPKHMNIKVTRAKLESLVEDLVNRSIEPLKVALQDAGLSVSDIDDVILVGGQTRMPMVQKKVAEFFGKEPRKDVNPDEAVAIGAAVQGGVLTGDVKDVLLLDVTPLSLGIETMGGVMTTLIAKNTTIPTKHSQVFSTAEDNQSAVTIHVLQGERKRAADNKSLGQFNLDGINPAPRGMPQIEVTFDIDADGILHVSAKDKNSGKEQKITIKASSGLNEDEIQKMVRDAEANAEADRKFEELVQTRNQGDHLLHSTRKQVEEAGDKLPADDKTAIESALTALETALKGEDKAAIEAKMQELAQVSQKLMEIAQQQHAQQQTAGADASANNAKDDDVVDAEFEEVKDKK
For `Nc1ncnc2c1ncn2CCN1CCCCC1`, the Kd was > 4 mM (inactive).
`O=C(Nc1nncs1)C1(c2ccccc2)CCCC1` was tested, and the Kd was > 4 mM (inactive).
In the case of `Cn1nnc2cc(C(=O)NCc3ccco3)ccc21`, the Kd is reported as > 4 mM (inactive).
For `Cn1ccc(NC(=S)Nc2cccc([N+](=O)[O-])c2)n1`, the Kd was > 4 mM (inactive).
For `Cc1nc(-c2ccc(CO)s2)cs1`, the Kd was > 4 mM (inactive).
With `CCc1noc(C)c1C(=O)N1CCCC1` the Kd was > 4 mM (inactive).
`CN(c1ccc(C(=O)N2CCCCC2)cc1)S(C)(=O)=O` was tested, and the Kd was > 4 mM (inactive).
With `CC(C)[C@@H]1CC[C@@H](C)C[C@H]1O` the Kd was > 4 mM (inactive).
For `N=C1/C(=C\c2ccco2)C(=O)N=C2SC=NN12`, the Kd was > 4 mM (inactive).
With `Cc1c(C(=O)Nc2cnccn2)oc2ccccc12` the Kd was > 4 mM (inactive).
For `Cc1nc2c(=O)[nH]c3ccccc3c2o1`, the Kd was > 4 mM (inactive).
With `Clc1ccccc1OCc1nc(-c2ccncc2)no1` the Kd was > 4 mM (inactive).
With `Nc1ncc2[nH]cnc2n1` the Kd was > 4 mM (inactive).
With `CCOc1ccc(C(=O)c2ccncc2)cc1` the Kd was > 4 mM (inactive).
With `OC1CCCN(Cc2ccccc2)C1` (configuration not stated) the Kd was > 4 mM (inactive).
In the case of `CC1CC[C@]2(NC1)O[C@H]1CC3C4CC[C@H]5C[C@@H](O)CC[C@]5(C)C4CC[C@]3(C)[C@H]1[C@@H]2C` (some centres not stated), the Kd is reported as > 4 mM (inactive).
In the case of `C=CCc1ccc(O)c(OC)c1`, the Kd is reported as > 4 mM (inactive).
`NC(=O)c1ccccc1N=Cc1ccco1` was tested, and the Kd was > 4 mM (inactive).
With `O=C(O)CCn1c(=O)oc2ccccc21` the Kd was > 4 mM (inactive).
`CCC(/C=C/[C@@H](C)[C@H]1CCC2C3CC=C4C[C@@H](O)CC[C@]4(C)C3CC[C@@]21C)C(C)C` (some centres not stated) was tested, and the Kd was > 4 mM (inactive).
With `Cn1c(=O)c2[nH]c(Nc3ccccc3)nc2n(C)c1=O` the Kd was > 4 mM (inactive).
`CNc1ccccc1C(=O)O` was tested, and the Kd was > 4 mM (inactive).
For `O=C(NC1CCS(=O)(=O)C1)c1cccs1` (configuration not stated), the Kd was > 4 mM (inactive).
In the case of `[O-][n+]1onc2c1CCc1c-2nn(-c2ccccc2)[n+]1[O-]`, the Kd is reported as > 4 mM (inactive).
`Cc1cc(C(=O)Nc2cccnc2)no1` was tested, and the Kd was > 4 mM (inactive).
In the case of `CC(=O)c1ccc[nH]1`, the Kd is reported as > 4 mM (inactive).
`Cc1cc(C)cc(OC(=O)N2CCOCC2)c1` was tested, and the Kd was > 4 mM (inactive).
`COc1cc(C(C)=O)cc(OC)c1O` was tested, and the Kd was > 4 mM (inactive).
For `O=C1CCC(=O)N1c1ccc(F)cc1`, the Kd was > 4 mM (inactive).
`Cc1nnsc1C(=O)O` was tested, and the Kd was > 4 mM (inactive).
In the case of `OCC1COc2ccccc2C1` (configuration not stated), the Kd is reported as > 4 mM (inactive).
In the case of `COC(=O)c1cccc(N)c1`, the Kd is reported as > 4 mM (inactive).
With `COc1cccc(O)c1O` the Kd was > 4 mM (inactive).
With `Cc1cc(C)cc(C(=O)N2CCC(C(N)=O)CC2)c1` the Kd was > 4 mM (inactive).
With `Cc1ccc(C(=O)N2CCC(C(N)=O)CC2)c(Cl)c1` the Kd was > 4 mM (inactive).
`Cc1cccc(NC(=O)CN2C(=O)CNC2=O)c1` was tested, and the Kd was > 4 mM (inactive).
`Cc1cc(C(=O)Nn2cnnc2)cs1` was tested, and the Kd was > 4 mM (inactive).
For `C[C@H]1C(=O)CCC2[C@]3(C)CC[C@@]4(C)C5CC(C)(C)CC[C@]5(C)CC[C@]4(C)C3CC[C@@]21C` (some centres not stated), the Kd was > 4 mM (inactive).
In the case of `Nc1ccc2c(c1)COc1ccccc1O2`, the Kd is reported as > 4 mM (inactive).
`OCc1ccccc1N1CCOCC1` was tested, and the Kd was > 4 mM (inactive).
`O=C(Nn1cnnc1)c1csc2ccccc12` was tested, and the Kd was > 4 mM (inactive).
In the case of `COc1ccc2nc(N)sc2c1`, the Kd is reported as > 4 mM (inactive).
For `CC[C@@]1(O)C[C@H](O[C@H]2C[C@H](N(C)C)[C@H](O)[C@H](C)O2)c2c(cc3c(c2O)C(=O)c2c(O)cccc2C3=O)[C@H]1C(=O)OC`, the Kd was > 4 mM (inactive).
In the case of `O=C1CSC(=S)N1N1C(=O)C2C3C=CC(C3)C2C1=O` (configuration not stated), the Kd is reported as > 4 mM (inactive).
`COc1ccccc1NC(=O)c1ccc(Br)o1` was tested, and the Kd was > 4 mM (inactive).
`COc1ccc(-c2coc3cc(OC)cc(OC)c3c2=O)cc1` was tested, and the Kd was > 4 mM (inactive).
With `CC1(C)Cn2c(nnc2-c2ccccc2)S1` the Kd was > 4 mM (inactive).
